Key:
Format in all cases: in vivo
Mythimna separata = test: Efficacy test against Mythimna separata (Test Example 1); details: 144 h, corn leaves soaked, second-instar larvae, 6 days after inoculation, read-out: Insect mortality rate
Protocol: (§1) 5 parts of the compound of the present invention, 93.6 parts of dimethylformamide and 1.4 parts of polyoxyethylene alkyl aryl ether were mixed and dissolved to prepare Emulsion (I) including 5% of an active ingredient. For the control, Emulsion (II) was prepared by mixing and dissolving 93.6 parts of dimethylformamide and 1.4 parts of polyoxyethylene alkyl aryl ether.
(§2) An insect mortality rate was calculated by the numerical equation shown below.
(§3) Insect mortality rate (%)={(Number of dead insects)/(Number of sample insects)}×100
(Test Example 1) Efficacy Test against Mythimna separata Emulsion (I) was diluted with water so that the concentration of the compound of the present invention was 125 ppm. Corn leaves were soaked in the diluted liquid for 30 seconds. Subsequently, the corn leaves were put on Petri dishes, followed by inoculating 5 second-instar larvae of Mythimna separata. The Petri dishes were placed in a thermostatic chamber at a temperature of 25° C. and humidity of 60%. Mortality was investigated 6 days after inoculation, and the insect mortality rate was calculated.

Thrips palmi = test: Efficacy test against Thrips palmi, spray on cucumber seedlings (Test Example 3); details: 168 h, sprayed on cucumber seedlings, 7 days after spraying, read-out: controlling rate
Protocol: as §1
Cucumber seedlings were inoculated with 8 adults of Thrips palmi. Emulsion (I) was diluted with water so that the concentration of the compound of the present invention was 125 ppm. Subsequently, the aforementioned diluted liquid was sprayed on the cucumber seedlings, and then air dried. The number of the parasitic larvae was counted 7 days after spraying. The efficacy of the compounds was evaluated by the controlling rate described below.
Controlling rate (%)={1−(Nt)/(Nc)}×100
In which Nt: number of parasites at the legion spray-treated. • Nc: number of parasites at the legion non-treated (control).

Aphis gossypii = test: Efficacy test against Aphis gossypii (Test Example 2); details: 144 h, sprayed on cucumber plants with nymphs, 6 days after spraying, read-out: Insect mortality rate
Protocol: as §1, §2, §3
Cucumber seedlings were inoculated with nymphs of Aphis gossypii. Emulsion (I) was diluted with water so that the concentration of the compound of the present invention was 125 ppm. Subsequently, the aforementioned diluted liquid was sprayed on the cucumber plants on which the nymphs of Aphis gossypii were parasitic. The aforementioned cucumber plants were then placed in a thermostatic chamber with a temperature of 25° C. and humidity of 60%. Mortality was investigated 6 days after spraying was carried out, and the insect mortality rate of Aphis gossypii was calculated.

Structure (SMILES)	mortality at 125 ppm (Mythimna separata) [%]	pest or weed control at 125 ppm (Thrips palmi) [%]	mortality at 125 ppm (Aphis gossypii) [%]
CN1OC2(N=C1NC(C)(C)C)c1ccc(Cl)cc1OCCC2c1ccccc1 (stereo not drawn) [a-29]	≥ 80		
CN1OC2(CC(c3ccccc3)c3ccccc32)N=C1NC(C)(C)C (stereo not drawn) [a-25]	≥ 80	≥ 80	≥ 80
CN1OC2(CCCOc3ccccc32)N=C1NC(C)(C)C (stereo not drawn) [a-26]			≥ 80
Cc1cc2c(s1)CCc1ccccc1C21N=C(NC(C)(C)C)N(C)O1 (stereo not drawn) [a-31]		≥ 80	
CC1CCOc2cc(Cl)ccc2C12N=C(NC(C)(C)C)N(N)O2 (stereo not drawn) [a-30]	≥ 80		
CN1OC2(N=C1NC(C)(C)C)c1ccccc1CCCc1ccccc12 [Compound A-1]			≥ 80
CN1OC2(N=C1NC(C)(C)C)c1ccccc1C=Cc1ccccc12 [a-19]	≥ 80		
CN1OC2(N=C1N(C)C(C)(C)C)c1ccccc1CCCc1ccccc12 [Compound A-2]			≥ 80
CN1OC2(CC(C)(C)Oc3ccc(F)cc32)N=C1NC(C)(C)C (stereo not drawn) [a-20, N-(tert-butyl)-6-fluoro-2,2,2′-trimethyl-2′H-spiro [chromane-4,5′-[1,2,4]oxadiazol]-3′-amine]	≥ 80		≥ 80
CCN(C1=NC2(ON1N)c1ccccc1C=Cc1ccccc12)C(C)(C)C [a-18]	≥ 80		
CC(C)(C)NC1=NC2(CCc3ccccc32)ON1N (stereo not drawn) [a-24]			≥ 80
CC(C)(C)NC1=NC2(CCCc3ccccc32)ON1N (stereo not drawn) [a-21]			≥ 80
CCN(C1=NC2(ON1N)c1ccccc1CCc1sc(Cl)cc12)C(C)(C)C (stereo not drawn) [a-38]		≥ 80	
CN1OC2(Cc3ccccc3Oc3ccccc32)N=C1NC(C)(C)C (stereo not drawn) [a-22, N-(tert-butyl)-2′-methyl-2′H, 11H-spiro[dibenzo[b,f]oxepine-10,5′-[1,2,4]oxadiazol]-3′-amine]		≥ 80	
CN(C1=NC2(ON1N)c1ccccc1CCc1ccccc12)C(C)(C)C [a-35]		≥ 80	
CN1OC2(N=C1NC(C)(C)C)c1ccccc1COc1ccccc12 (stereo not drawn) [a-11, N-(tert-butyl)-2′-methyl-2′H,6H-spiro[dibenzo[b,e]oxepine-11,5′-[1,2,4]oxadiazol]-3′-amine]	≥ 80	≥ 80	
CCN(C1=NC2(ON1C)c1ccccc1COc1ccccc12)C(C)(C)C (stereo not drawn) [a-10]	≥ 80	≥ 80	≥ 80
CN1OC2(N=C1N(C)C(C)(C)C)c1ccccc1CCc1sc(Cl)cc12 (stereo not drawn) [a-37]		≥ 80	
CN1OC2(N=C1N(C)C(C)(C)C)c1ccccc1CCc1sccc12 (stereo not drawn) [a-36]		≥ 80	
CN1OC2(N=C1N(C)C(C)(C)C)c1ccccc1C=Cc1ccccc12 [a-17]		≥ 80	
CN1OC2(N=C1N(C)C(C)(C)C)c1ccccc1COc1ccccc12 (stereo not drawn) [a-23]		≥ 80	
